# From article PMC9848300, “Discovery of novel enasidenib analogues targeting inhibition of mutant isocitrate dehydrogenase 2 as antileukaemic agents” (Journal of Enzyme Inhibition and Medicinal Chemistry, 2023)
# Columns and labels:
# [1] = tested on: MDA-MB-468; assay: NCI 60 antitumor screening (single dose / five doses); type: cell-based; conditions: Homo sapiens; MDA-MB-468 (breast cancer), single dose 10 μM; read-out: Growth inhibition percentage (GI %)
# [2] = tested on: HCT-15; assay: as above; type: cell-based; conditions: Homo sapiens; HCT-15 (colon cancer), single dose 10 μM; read-out: Growth inhibition percentage (GI %)
# [3] = tested on: BT-549; assay: as above; type: cell-based; conditions: Homo sapiens; BT-549 (breast cancer), single dose 10 μM; read-out: Growth inhibition percentage (GI %)
# [4] = tested on: MDA-MB-231/ATCC; assay: as above; type: cell-based; conditions: Homo sapiens; MDA-MB-231/ATCC (breast cancer), single dose 10 μM; read-out: Growth inhibition percentage (GI %)
# [5] = tested on: UO-31; assay: as above; type: cell-based; conditions: Homo sapiens; UO-31 (renal cancer), single dose 10 μM; read-out: Growth inhibition percentage (GI %)
# [6] = tested on: SK-MEL-5; assay: as above; type: cell-based; conditions: Homo sapiens; SK-MEL-5 (melanoma), single dose 10 μM; read-out: Growth inhibition percentage (GI %)
# [7] = tested on: RXF 393; assay: as above; type: cell-based; conditions: Homo sapiens; RXF 393 (renal cancer), single dose 10 μM; read-out: Growth inhibition percentage (GI %)
# [8] = tested on: LOX IMVI; assay: as above; type: cell-based; conditions: Homo sapiens; LOX IMVI (melanoma), single dose 10 μM; read-out: Growth inhibition percentage (GI %)
# [9] = tested on: OVCAR-8; assay: NCI 60 antitumor screening (single dose); type: cell-based; conditions: Homo sapiens; OVCAR-8 (ovarian cancer), single dose 10 μM; read-out: Growth inhibition percentage (GI %)
# Procedure, shortened: (§1)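 Values are GI% (100 − G%) from the NCI 60-line single-dose screen, compound at 10 μM.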
# [10] = tested on: NCI-H460; assay: NCI 60 antitumor screening (single dose); type: cell-based; conditions: Homo sapiens; NCI-H460 (non-small cell lung cancer), single dose 10 μM; read-out: Growth inhibition percentage (GI %)
# Procedure, shortened: (§2)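 Under the NCI Drug Evaluation Branch protocol, each compound is screened at one 10 μM concentration on the 60-line human tumour panel. Growth of treated cells is expressed as G%, and inhibition is reported as 100 − G%.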
# [11] = tested on: PC-3; assay: NCI 60 antitumor screening (single dose); type: cell-based; conditions: Homo sapiens; PC-3 (prostate cancer), single dose 10 μM; read-out: Growth inhibition percentage (GI %)
# Procedure, shortened: as §1
# [12] = tested on: HOP-62; assay: NCI 60 antitumor screening (single dose); type: cell-based; conditions: Homo sapiens; HOP-62 (non-small cell lung cancer), single dose 10 μM; read-out: Growth inhibition percentage (GI %)
# Procedure, shortened: as §2
# [13] = tested on: TK-10; assay: NCI 60 antitumor screening (single dose); type: cell-based; conditions: Homo sapiens; TK-10 (renal cancer), single dose 10 μM; read-out: Growth inhibition percentage (GI %)
# Procedure, shortened: as §1
# [14] = tested on: HCC-2998; assay: NCI 60 antitumor screening (single dose); type: cell-based; conditions: Homo sapiens; HCC-2998 (colon cancer), single dose 10 μM; read-out: Growth inhibition percentage (GI %)
# Procedure, shortened: as §2
# [15] = tested on: SF-295; assay: NCI 60 antitumor screening (single dose / five doses); type: cell-based; conditions: Homo sapiens; SF-295 (CNS cancer), single dose 10 μM; read-out: Growth inhibition percentage (GI %)
# [16] = tested on: MOLT-4; assay: as above; type: cell-based; conditions: Homo sapiens; MOLT-4 (leukaemia), single dose 10 μM; read-out: Growth inhibition percentage (GI %)
# [17] = tested on: K-562; assay: as above; type: cell-based; conditions: Homo sapiens, K562; K-562 (leukaemia), single dose 10 μM; read-out: Growth inhibition percentage (GI %)
# [18] = tested on: HT29; assay: as above; type: cell-based, human; conditions: Homo sapiens, HT-29; HT29 (colon cancer), single dose 10 μM; read-out: Growth inhibition percentage (GI %)
# [19] = tested on: SW-620; assay: as above; type: cell-based, human; conditions: Homo sapiens; SW-620 (colon cancer), single dose 10 μM; read-out: Growth inhibition percentage (GI %)
# [20] = tested on: ACHN; assay: as above; type: cell-based; conditions: Homo sapiens; ACHN (renal cancer), single dose 10 μM; read-out: Growth inhibition percentage (GI %)
# [21] = tested on: RPMI-8226; assay: as above; type: cell-based; conditions: Homo sapiens; RPMI-8226 (leukaemia), single dose 10 μM; read-out: Growth inhibition percentage (GI %)
# [22] = tested on: UACC-62; assay: as above; type: cell-based; conditions: Homo sapiens; UACC-62 (melanoma), single dose 10 μM; read-out: Growth inhibition percentage (GI %)
# [23] = tested on: 786-0; assay: as above; type: cell-based; conditions: Homo sapiens, 786-0, 786-0 (renal cancer), single dose 10 μM; read-out: Growth inhibition percentage (GI %)
# [24] = tested on: HL-60(TB); assay: as above; type: cell-based; conditions: Homo sapiens; HL-60(TB) (leukaemia), single dose 10 μM; read-out: Growth inhibition percentage (GI %)
# [25] = tested on: EKVX; assay: as above; type: cell-based; conditions: Homo sapiens; EKVX (non-small cell lung cancer), single dose 10 μM; read-out: Growth inhibition percentage (GI %)
# [26] = tested on: IGROV1; assay: as above; type: cell-based; conditions: Homo sapiens, IGROV-1; IGROV1 (ovarian cancer), single dose 10 μM; read-out: Growth inhibition percentage (GI %)
# [27] = tested on: UACC-257; assay: as above; type: cell-based; conditions: Homo sapiens; UACC-257 (melanoma), single dose 10 μM; read-out: Growth inhibition percentage (GI %)
# [28] = tested on: COLO 205; assay: as above; type: cell-based; conditions: Homo sapiens; COLO 205 (colon cancer), single dose 10 μM; read-out: Growth inhibition percentage (GI %)
SMILES,inhibition at 10 µM [1] [%],inhibition at 10 µM [2] [%],inhibition at 10 µM [3] [%],inhibition at 10 µM [4] [%],inhibition at 10 µM [5] [%],inhibition at 10 µM [6] [%],inhibition at 10 µM [7] [%],inhibition at 10 µM [8] [%],inhibition at 10 µM [9] [%],inhibition at 10 µM [10] [%],inhibition at 10 µM [11] [%],inhibition at 10 µM [12] [%],inhibition at 10 µM [13] [%],inhibition at 10 µM [14] [%],inhibition at 10 µM [15] [%],inhibition at 10 µM [16] [%],inhibition at 10 µM [17] [%],inhibition at 10 µM [18] [%],inhibition at 10 µM [19] [%],inhibition at 10 µM [20] [%],also measured
"Brc1ccccc1/C=N/Nc1nc(N/N=C/c2ccccc2Br)nc(N2CCCCC2)n1 [compound 7b, 2,4-Bis[(E)-2-[(2-Bromophenyl)methylidene]hydrazin-1-yl]-6-(piperidin-1-yl)-1,3,5-triazine]",12.4,1.2,-5.26,2.05,7.3,5.12,2.13,1.94,-1.21,0.96,5.07,1.14,-16.5,-7.41,-3.22,-12.3,4.67,-1.89,-0.46,4.56,inhibition at 10 µM [21]: -0.33%; inhibition at 10 µM [22]: 12.2%; inhibition at 10 µM [23]: 1.09%; inhibition at 10 µM [24]: -3.87%; inhibition at 10 µM [25]: 4.52%; inhibition at 10 µM [26]: 2.38%; inhibition at 10 µM [27]: -8.22%; inhibition at 10 µM [28]: -5.18%
"O=C(NNc1nc(NNC(=O)c2ccccc2)nc(N2CCOCC2)n1)c1ccccc1 [compound 8d, N'-[4-(morpholin-4-yl)-6-(phenylhydrazido)-1,3,5-triazin-2-yl]benzohydrazide]",-15.1,-2.67,-9.45,-3.73,13.3,0.18,0.99,2.21,3.15,-1.86,-7.68,-11.8,-10.8,-5.88,-0.06,-8.9,-6.16,-12,-4.44,-4.4,inhibition at 10 µM [21]: -9.42%; inhibition at 10 µM [22]: 4.98%; inhibition at 10 µM [23]: -3.15%; inhibition at 10 µM [24]: -15.3%; inhibition at 10 µM [25]: 3.9%; inhibition at 10 µM [26]: -2.38%; inhibition at 10 µM [27]: 1.13%; inhibition at 10 µM [28]: -12.9%
